IC50 data for ten compounds are collected here from patent US9822118B2, “Bicyclic heteroaryl urea, thiourea, guanidine and cyanoguanidine compounds as TrkA kinase inhibitors” (Array BioPharma Inc., priority 2012, dated 2017).

For this experiment, the target named is T1, recombinant human TrkA (Homo sapiens, UniProt P04629).
T1 construct: 6HIS tagged cytoplasmic domain from Invitrogen, Catalog No. PV3144; purchased Invitrogen PV3144
Briefly: TrkA LanthaScreen Eu Kinase Binding Assay. Particulars: averaged IC50; TR-FRET binding assay, 60 min at 22° C.; read-out: TrkA Enzyme IC50. The protocol: TrkA binding activity was determined in a TrkA LanthaScreen™ Eu Kinase Binding Assay. 5 nM His-tagged recombinant human TrkA (6HIS tagged cytoplasmic domain from Invitrogen, Catalog No. PV3144) was incubated with 4 nM Alexa-Fluor® Tracer 236 (Invitrogen Cat. No. PV5592), 2 nM biotinylated anti-His (Invitrogen Cat. No. PV6090), and 2 nM europium-labeled Streptavidin (Invitrogen Cat. No. PV5899), in buffer (25 mM MOPS, pH 7.5, 5 mM MgCl2, 0.005% Triton X-100). Three fold serial dilutions of compounds of the invention in DMSO were added to a final percentage of 2% DMSO. After 60-minute incubation at 22° C., the reaction was measured using the EnVision multimode plate reader (PerkinElmer) via TR-FRET dual wavelength detection at […]. The percent of control was calculated using a ratiometric emission factor. The IC50 values were determined by fitting a four parameter model to the percent of control data.
Table A provides averaged IC50 values for compounds of the invention when tested in the assay of Example A, where A represents an averaged IC50 value <100 nM; and B represents an averaged IC50 value from 100 to 1,000 nM.
On the technique in general: In TR-FRET formats the signal depends on donor and acceptor labels being close together.

Where only a bound is given, the exact number is not on record here.

T1 sequence (P04629 440-796 limits assumed): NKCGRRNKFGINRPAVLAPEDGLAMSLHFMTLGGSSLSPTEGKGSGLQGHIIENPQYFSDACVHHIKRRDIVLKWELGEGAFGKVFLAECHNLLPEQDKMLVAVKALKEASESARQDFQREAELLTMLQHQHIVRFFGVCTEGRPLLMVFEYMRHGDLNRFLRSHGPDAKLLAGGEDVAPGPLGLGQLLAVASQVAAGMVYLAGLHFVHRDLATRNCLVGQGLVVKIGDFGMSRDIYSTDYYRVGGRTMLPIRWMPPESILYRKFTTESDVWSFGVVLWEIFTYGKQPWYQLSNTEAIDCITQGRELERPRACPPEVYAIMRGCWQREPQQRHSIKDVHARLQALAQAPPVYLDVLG

Regarding `Cc1c(-c2cnn(C)c2)nn(-c2ccccc2)c1NC(=O)Nc1c(-c2ccccc2)nc2c(C(F)(F)F)cccn12` [Example 30, 1-(1′,4-dimethyl-1-phenyl-1H,1′H-[3,4′-bipyrazol]-5-yl)-3-(2-phenyl-8-(trifluoromethyl)imidazo[1,2-a]pyridin-3-yl)urea], the IC50 – broadly, the concentration needed to halve the response being measured – is under 100 nM.
`COCc1nn(-c2ccccc2)c(NC(=O)Nc2c(-c3ccccc3)nc3c(C(F)(F)F)cccn23)c1C` [Example 31, 1-(3-(methoxymethyl)-4-methyl-1-phenyl-1H-pyrazol-5-yl)-3-(2-phenyl-8-(trifluoromethyl)imidazo[1,2-a]pyridin-3-yl)urea]: the IC50 was 100 to 1000 nM.
In the case of `CCOc1nn(-c2ccccc2)c(NC(=O)Nc2c(-c3cccc(F)c3)nc3c(C(F)(F)F)cccn23)c1C` [Example 32, 1-(3-ethoxy-4-methyl-1-phenyl-1H-pyrazol-5-yl)-3-(2-(3-fluorophenyl)-8-(trifluoromethyl)imidazo[1,2-a]pyridin-3-yl)urea] it was 100 to 1000 nM.
In the case of `CCOc1nn(-c2ccccc2)c(NC(=O)Nc2c(-c3ccc(F)cc3)nc3c(C(F)(F)F)cccn23)c1C` [Example 33, 1-(3-ethoxy-4-methyl-1-phenyl-1H-pyrazol-5-yl)-3-(2-(4-fluorophenyl)-8-(trifluoromethyl)imidazo[1,2-a]pyridin-3-yl)urea] it was under 100 nM.
`Cn1cc(-c2nn(-c3ccccc3)c(NC(=O)Nc3c(-c4ccccc4)nc4c(C(F)(F)F)cccn34)c2Cl)cn1` [Example 34, 1-(4-chloro-1′-methyl-1-phenyl-1H,1′H-[3,4′-bipyrazol]-5-yl)-3-(2-phenyl-8-(trifluoromethyl)imidazo[1,2-a]pyridin-3-yl)urea]: the IC50 is under 100 nM.
Turning to `COC[C@@H](O)COc1nn(-c2ccccc2)c(NC(=O)Nc2c(-c3ccccc3)nc3c(C(F)(F)F)cccn23)c1C` [Example 35, (R)-1-(3-(2-hydroxy-3-methoxypropoxy)-4-methyl-1-phenyl-1H-pyrazol-5-yl)-3-(2-phenyl-8-(trifluoromethyl)imidazo[1,2-a]pyridin-3-yl)urea], the IC50 lay within 100 to 1000 nM.
The same measure for `COC[C@H](O)COc1nn(-c2ccccc2)c(NC(=O)Nc2c(-c3ccccc3)nc3c(C(F)(F)F)cccn23)c1C` [Example 36, (S)-1-(3-(2-hydroxy-3-methoxypropoxy)-4-methyl-1-phenyl-1H-pyrazol-5-yl)-3-(2-phenyl-8-(trifluoromethyl)imidazo[1,2-a]pyridin-3-yl)urea]: under 100 nM.
The same measure for `O=C(Nc1c2c(nn1-c1ccccc1)CCC2)Nc1c2ccccc2nn1-c1ccccc1` [Example 37, 1-(2-phenyl-2,4,5,6-tetrahydrocyclopenta[c]pyrazol-3-yl)-3-(2-phenyl-2H-indazol-3-yl)urea]: 100 to 1000 nM; for `O=C(Nc1c(-c2ccccc2)nn2ccccc12)Nc1c2c(nn1-c1ccccc1)CCC2` [Example 38, 1-(2-phenyl-2,4,5,6-tetrahydrocyclopenta[c]pyrazol-3-yl)-3-(2-phenylpyrazolopyridin-3-yl)urea]: under 100 nM.
In the case of `CCOc1nn(-c2ccccc2)c(NC(=O)Nc2c(-c3ccccc3)nn3ccccc23)c1C` [Example 39, 1-(3-ethoxy-4-methyl-1-phenyl-1H-pyrazol-5-yl)-3-(2-phenylpyrazolo[1,5-a]pyridin-3-yl)urea] it was 100 to 1000 nM.
